What all share (format): biochemical
The subject of data set [1] is Human pancreatic cholesterol esterase. Kind of data set: Inhibition of cholesteryl 14C-oleate hydrolysis by cholesterol esterase. As to conditions: for IC50 cholesterol esterase inhibition: 37° C., fifteen minutes, pH 7.5.
The target in data set [2] is human 100 kDa cholesterol esterase. Kind of data set: Inhibition of triolein hydrolysis by cholesterol esterase. As to conditions: table 3; triolein used instead of cholesterol oleate. On the procedure: (§1) Alginic acid from Macrocystis pyrifera (kelp) was dissolved in water at a concentration of 1 mg/ml. This stock solution was used to prepare various polysaccharide concentrations down to 10^-5 mg/ml. Human pancreatic cholesterol esterase was purified as described by Bosner et al., Proc Nat'l. Acad. Sci., 85, 7438 (1988). To measure cholesterol esterase inhibition by alginic acid, 50 μl of cholesterol esterase (10 μg/ml). 75 μl of phosphatidylcholine vesicles containing cholesteryl ^14 C-oleate (1 mM 2,000 CPM/nmole). 25 μl of 100 mM taurocholate, 120 μl of 150 mM Tris. pH 7.5 and 30 μl of test alginic acid solution were incubated at 37° C. for fifteen minutes. The assay was quenched by placing the reaction vessels in a 4° C. ice bath and by adding 0.6 ml of 0.3 N NaOH and 3 ml of benzene/chloroform/methanol (1 0/1.2/0 5). The quenched reactions were vortexed for 30 seconds, centrifuged at 3,000 g for 15 minutes and 1 ml of the upper aqueous phase was added to 7 ml of Aquasol-2 (DuPont) with 0.025 ml of 6 N HCl. These mixtures were vortexed for one minute and counted for ^14 C-oleate The counts were compared to a sample which contained cholesterol esterase but no alginic acid to determine the percentage of inhibition.
(The same assay procedure was used as described in Part I, only triolein was used instead of cholesterol oleate.) As shown in the table below, the IC50 for inhibition of triolein hydrolysis is nearly the same as that for cholesteryl oleate hydrolysis.

The subject of the next data set is cholesterol esterase. Description: Cholesterol esterase inhibition by water extract of baked muffin (stability under baking conditions). As to conditions: qualitative statement. As for the experimental part: as §1
The sulfated polysaccharides described here retain their inhibitory activity for prolonged periods at elevated temperatures. […]

Setting [3] is: table 2, summary of sulfated polysaccharides, read-out: IC50.
The mark [4] stands for this setting: table 3, cholesteryl oleate hydrolysis, read-out: IC50 (nM) Cholesteryl Oleate.
The mark [5] stands for this setting: cholesteryl 14C-oleate substrate.
Setting [6] is: cholesteryl 14C-oleate substrate, molar value assumes a molecular weight (alginic acid 240 kDa, pectin 20 kDa, chitin 300 kDa, cellulose sulfate 500 kDa), read-out: IC50 cholesterol esterase inhibition.

Like-named read-outs stand apart in the source and are kept apart here.

Take pectin [reference compound]: in data set [1] (qualitative statement), the “Inhibition of cholesterol esterase (in words)” value is recorded as “does not inhibit cholesterol esterase”.

By IC50 is commonly meant the concentration needed to halve the response being measured. As to Chitin Sulfate, the IC50 in data set [2] turned out to be 0.14 nM; in data set [1] (setting [3]), 0.06 nM; in data set [1] (setting [4]) it was 0.06 nM.

With Alginic acid [reference compound], the IC50 in data set [2] was determined as 42 nM; in data set [1] (setting [6]), 20 nM; in data set [1] (setting [4]), 20 nM. For the same substance, the “IC50 cholesterol esterase inhibition” value in data set [1] (setting [5]) came out at 4 µg/mL. In addition, the “Enhancement Factor” value in data set [1] (table 1, enhancement of inhibition relative to native alginic acid (fold)) is given as 1.0.

As for Dextran Sulfate, the IC50 in data set [1] (setting [6]), in data set [1] (setting [3]) and in data set [1] (setting [4]) was 0.02 nM in each case.

In the case of Chitosan Sulfate, the IC50 in data set [2] stood at 0.16 nM; in data set [1] (setting [6]), 0.03 nM; in data set [1] (setting [3]) it was 0.03 nM; in data set [1] (setting [4]), 0.03 nM. Also, in data set [1] (setting [5]), the “IC50 cholesterol esterase inhibition” value came out at 0.015 µg/mL.

Regarding Cellulose Sulfate, the IC50 turned out to be 0.06 nM in data set [2], 0.02 nM in data set [1] (setting [6]), 0.02 nM in data set [1] (setting [3]) and 0.02 nM in data set [1] (setting [4]). Besides, in the data set with cholesterol esterase, the “Retention of inhibitory activity at elevated temperatures / stability under baking conditions (in words)” value is listed as “stable under baking conditions”.
